Experimental data as given in article PMC9751013 (European Journal of Medicinal Chemistry, 2022).

What was measured:
SARS-CoV-2 M^pro [1] = molecular target: T1, SARS-CoV-2 M^pro (Severe acute respiratory syndrome coronavirus 2, UniProt P0DTD1); format: biochemical
[2] = molecular target: SARS-CoV-2 papain-like protease (PL^pro) (Severe acute respiratory syndrome coronavirus 2, UniProt P0DTD1); assay: SARS-CoV-2 PLpro enzyme inhibition screening; format: biochemical
hCatB = hCatB (Homo sapiens, UniProt P07858); assay: hCatB enzyme inhibition assay; format: biochemical; conditions: hCatB vs hCatL
[3] = molecular target: T2, dengue virus NS2B/NS3 serine protease (Dengue virus type 2, UniProt P29990); assay: Dengue virus NS2B/NS3 protease inhibition screening; format: biochemical, dengue virus 2
T2 sequence (P29990 1476-1653 limits assumed): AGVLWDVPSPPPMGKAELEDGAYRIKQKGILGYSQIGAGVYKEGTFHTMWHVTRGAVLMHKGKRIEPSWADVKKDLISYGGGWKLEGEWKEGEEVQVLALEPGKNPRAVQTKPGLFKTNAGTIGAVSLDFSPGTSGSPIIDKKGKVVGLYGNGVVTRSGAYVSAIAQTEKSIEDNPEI

SARS-CoV-2 M^pro [4] = molecular target: T1, SARS-CoV-2 M^pro; format: biochemical; conditions: inhibitor at 10-fold IC50, 60 min incubation, 25 h of dialysis

Compound | binding affinity to SARS-CoV-2 M^pro, fold lower with respect to SPR38 (SARS-CoV-2 M^pro [1]) | inhibition of SARS-CoV-2 PL^pro at 100 μM [2] | Ki hCatB fold higher compared to Ki hCatL (hCatB) | inhibitory activity against dengue virus NS2B/NS3 serine protease at 100 μM [3] | enzymatic activity of M^pro recovered after dialysis (SARS-CoV-2 M^pro [4])
CCC[C@H](NC(=O)OCc1ccccc1)C(=O)N[C@H](/C=C/C(C)=O)C[C@@H]1CCNC1=O [SPR35, Benzyl ((S)-1-oxo-1-(((S,E)-5-oxo-1-((S)-2-oxopyrrolidin-3-yl)hex-3-en-2-yl)amino)pentan-2-yl)carbamate] | ~7 fold | – | – | – | –
CCCC[C@H](NC(=O)OCc1ccccc1)C(=O)N[C@H](/C=C/C(C)=O)C[C@@H]1CCNC1=O [SPR38, Benzyl ((S)-1-oxo-1-(((S,E)-5-oxo-1-((S)-2-oxopyrrolidin-3-yl)hex-3-en-2-yl)amino)hexan-2-yl)carbamate] | – | no inhibition | ~2 fold | no inhibitory activity | –
CC(=O)/C=C/[C@H](C[C@@H]1CCNC1=O)NC(=O)[C@H](CC1CCCCC1)NC(=O)OCc1ccccc1 [SPR41, Benzyl ((S)-3-cyclohexyl-1-oxo-1-(((S,E)-5-oxo-1-((S)-2-oxopyrrolidin-3-yl)hex-3-en-2-yl)amino)propan-2-yl)carbamate] | – | no inhibition | – | no inhibitory activity | did not show recovering enzymatic activities
CC(=O)/C=C/[C@H](C[C@@H]1CCNC1=O)NC(=O)[C@H](CC1CC1)NC(=O)OCc1ccccc1 [SPR39, Benzyl ((S)-3-cyclopropyl-1-oxo-1-(((S,E)-5-oxo-1-((S)-2-oxopyrrolidin-3-yl)hex-3-en-2-yl)amino)propan-2-yl)carbamate] | – | no inhibition | ~6 fold | no inhibitory activity | did not show recovering enzymatic activities
